Results taken from ChEMBL document CHEMBL3991601, “The target landscape of clinical kinase drugs” (Science, 2017).
Activity calls are given as the source filed them. For most assays here, no stated cut-off is given here; in the data, actives have a measured Kd and inactives only a lower limit.

target: Non-receptor tyrosine-protein kinase TYK2 (Homo sapiens, UniProt P29597)

Row | Structure (SMILES) | Kd
1 | Cc1ccc(NC(=O)c2ccc(CN3CC[C@H](N(C)C)C3)c(C(F)(F)F)c2)cc1Nc1nccc(-c2cncnc2)n1 [BAFETINIB] | > 30 µM (inactive)
2 | CNC(=O)c1ccc(-c2cnc3ncc(Cc4ccc5ncccc5c4)n3n2)cc1F [CAPMATINIB] | > 30 µM (inactive)
3 | COCCNCc1ccc(-c2cc3nccc(Oc4ccc(NC(=S)NC(=O)Cc5ccc(F)cc5)cc4F)c3s2)nc1 [GLESATINIB] | > 30 µM (inactive)

target: MAP kinase-activated protein kinase 2 (Homo sapiens, UniProt P49137)
Sequence (P49137 whole entry): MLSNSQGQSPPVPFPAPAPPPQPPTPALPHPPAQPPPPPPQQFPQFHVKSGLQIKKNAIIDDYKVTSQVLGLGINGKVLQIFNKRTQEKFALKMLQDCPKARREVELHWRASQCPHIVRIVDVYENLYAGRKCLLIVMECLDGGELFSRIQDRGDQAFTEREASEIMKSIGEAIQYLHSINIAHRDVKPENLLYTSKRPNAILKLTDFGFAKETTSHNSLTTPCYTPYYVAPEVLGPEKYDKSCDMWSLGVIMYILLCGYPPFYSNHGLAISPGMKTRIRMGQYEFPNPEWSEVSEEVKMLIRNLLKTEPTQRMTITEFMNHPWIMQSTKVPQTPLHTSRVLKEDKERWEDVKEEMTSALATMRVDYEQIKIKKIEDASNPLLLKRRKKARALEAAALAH

Row | Structure (SMILES) | Kd
4 | Cc1ccc(NC(=O)c2ccc(CN3CC[C@H](N(C)C)C3)c(C(F)(F)F)c2)cc1Nc1nccc(-c2cncnc2)n1 [BAFETINIB] | 0.304 µM (active)
5 | CNC(=O)c1ccc(-c2cnc3ncc(Cc4ccc5ncccc5c4)n3n2)cc1F [CAPMATINIB] | > 30 µM (inactive)
6 | COCCNCc1ccc(-c2cc3nccc(Oc4ccc(NC(=S)NC(=O)Cc5ccc(F)cc5)cc4F)c3s2)nc1 [GLESATINIB] | > 30 µM (inactive)

target: T1, Serine/threonine-protein kinase TAO1 (Homo sapiens, UniProt Q7L7X3)
T1 sequence (Q7L7X3 whole entry): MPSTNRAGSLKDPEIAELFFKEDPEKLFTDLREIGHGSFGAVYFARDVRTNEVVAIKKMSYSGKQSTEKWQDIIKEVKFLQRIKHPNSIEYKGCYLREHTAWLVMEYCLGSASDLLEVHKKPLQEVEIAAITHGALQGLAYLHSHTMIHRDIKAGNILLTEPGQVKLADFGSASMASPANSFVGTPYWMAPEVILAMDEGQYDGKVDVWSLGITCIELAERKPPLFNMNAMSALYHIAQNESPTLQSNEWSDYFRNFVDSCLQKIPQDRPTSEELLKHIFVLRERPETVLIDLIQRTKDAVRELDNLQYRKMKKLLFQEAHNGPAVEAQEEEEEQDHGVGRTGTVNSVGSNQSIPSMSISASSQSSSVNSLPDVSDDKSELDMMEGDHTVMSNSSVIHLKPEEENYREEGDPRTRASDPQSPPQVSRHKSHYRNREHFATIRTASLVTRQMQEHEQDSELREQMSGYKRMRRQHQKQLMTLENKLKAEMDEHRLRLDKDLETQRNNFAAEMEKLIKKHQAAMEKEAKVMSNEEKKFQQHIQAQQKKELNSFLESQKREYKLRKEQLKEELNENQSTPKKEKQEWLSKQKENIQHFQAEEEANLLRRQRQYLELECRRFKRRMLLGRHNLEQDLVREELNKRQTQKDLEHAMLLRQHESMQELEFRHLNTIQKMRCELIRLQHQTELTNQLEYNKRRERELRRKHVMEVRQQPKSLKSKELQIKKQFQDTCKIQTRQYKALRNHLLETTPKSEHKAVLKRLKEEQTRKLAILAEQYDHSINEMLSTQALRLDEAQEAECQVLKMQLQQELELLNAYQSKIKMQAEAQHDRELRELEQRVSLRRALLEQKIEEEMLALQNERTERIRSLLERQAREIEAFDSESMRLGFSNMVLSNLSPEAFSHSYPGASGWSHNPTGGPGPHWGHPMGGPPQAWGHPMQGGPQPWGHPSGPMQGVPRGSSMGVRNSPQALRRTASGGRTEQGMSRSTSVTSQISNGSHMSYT

Row | Structure (SMILES) | Kd
7 | Cc1ccc(NC(=O)c2ccc(CN3CC[C@H](N(C)C)C3)c(C(F)(F)F)c2)cc1Nc1nccc(-c2cncnc2)n1 [BAFETINIB] | > 30 µM (inactive)
8 | CNC(=O)c1ccc(-c2cnc3ncc(Cc4ccc5ncccc5c4)n3n2)cc1F [CAPMATINIB] | > 30 µM (inactive)
9 | COCCNCc1ccc(-c2cc3nccc(Oc4ccc(NC(=S)NC(=O)Cc5ccc(F)cc5)cc4F)c3s2)nc1 [GLESATINIB] | > 30 µM (inactive)

target: ATP-dependent RNA helicase DDX3X (Homo sapiens, UniProt O00571)
Sequence (O00571 whole entry): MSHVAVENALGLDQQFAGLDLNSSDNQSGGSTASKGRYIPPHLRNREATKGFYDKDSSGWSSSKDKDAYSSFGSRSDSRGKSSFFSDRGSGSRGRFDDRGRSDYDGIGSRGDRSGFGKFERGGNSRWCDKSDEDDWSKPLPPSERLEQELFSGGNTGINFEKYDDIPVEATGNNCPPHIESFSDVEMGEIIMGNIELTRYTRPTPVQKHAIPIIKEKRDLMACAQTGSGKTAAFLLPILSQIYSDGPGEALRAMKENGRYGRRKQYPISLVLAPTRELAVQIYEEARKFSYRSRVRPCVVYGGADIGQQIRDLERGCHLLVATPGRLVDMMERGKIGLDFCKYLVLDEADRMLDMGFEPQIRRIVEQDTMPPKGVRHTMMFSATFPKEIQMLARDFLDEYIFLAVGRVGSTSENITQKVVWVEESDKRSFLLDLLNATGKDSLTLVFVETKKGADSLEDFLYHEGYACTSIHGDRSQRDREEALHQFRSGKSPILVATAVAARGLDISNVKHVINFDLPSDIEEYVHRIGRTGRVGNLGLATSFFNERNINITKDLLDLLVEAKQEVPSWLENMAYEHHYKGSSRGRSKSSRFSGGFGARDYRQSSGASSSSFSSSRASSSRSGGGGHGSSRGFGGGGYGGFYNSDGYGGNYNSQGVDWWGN

Row | Structure (SMILES) | Kd
10 | Cc1ccc(NC(=O)c2ccc(CN3CC[C@H](N(C)C)C3)c(C(F)(F)F)c2)cc1Nc1nccc(-c2cncnc2)n1 [BAFETINIB] | > 30 µM (inactive)
11 | CNC(=O)c1ccc(-c2cnc3ncc(Cc4ccc5ncccc5c4)n3n2)cc1F [CAPMATINIB] | > 30 µM (inactive)
12 | COCCNCc1ccc(-c2cc3nccc(Oc4ccc(NC(=S)NC(=O)Cc5ccc(F)cc5)cc4F)c3s2)nc1 [GLESATINIB] | > 30 µM (inactive)

target: Ribosomal protein S6 kinase alpha-4 (Homo sapiens, UniProt O75676)

Row | Structure (SMILES) | Kd
13 | Cc1ccc(NC(=O)c2ccc(CN3CC[C@H](N(C)C)C3)c(C(F)(F)F)c2)cc1Nc1nccc(-c2cncnc2)n1 [BAFETINIB] | > 30 µM (inactive)
14 | CNC(=O)c1ccc(-c2cnc3ncc(Cc4ccc5ncccc5c4)n3n2)cc1F [CAPMATINIB] | > 30 µM (inactive)
15 | COCCNCc1ccc(-c2cc3nccc(Oc4ccc(NC(=S)NC(=O)Cc5ccc(F)cc5)cc4F)c3s2)nc1 [GLESATINIB] | > 30 µM (inactive)

target: Mitogen-activated protein kinase kinase kinase 1 (Homo sapiens, UniProt Q13233)
Sequence (Q13233 whole entry): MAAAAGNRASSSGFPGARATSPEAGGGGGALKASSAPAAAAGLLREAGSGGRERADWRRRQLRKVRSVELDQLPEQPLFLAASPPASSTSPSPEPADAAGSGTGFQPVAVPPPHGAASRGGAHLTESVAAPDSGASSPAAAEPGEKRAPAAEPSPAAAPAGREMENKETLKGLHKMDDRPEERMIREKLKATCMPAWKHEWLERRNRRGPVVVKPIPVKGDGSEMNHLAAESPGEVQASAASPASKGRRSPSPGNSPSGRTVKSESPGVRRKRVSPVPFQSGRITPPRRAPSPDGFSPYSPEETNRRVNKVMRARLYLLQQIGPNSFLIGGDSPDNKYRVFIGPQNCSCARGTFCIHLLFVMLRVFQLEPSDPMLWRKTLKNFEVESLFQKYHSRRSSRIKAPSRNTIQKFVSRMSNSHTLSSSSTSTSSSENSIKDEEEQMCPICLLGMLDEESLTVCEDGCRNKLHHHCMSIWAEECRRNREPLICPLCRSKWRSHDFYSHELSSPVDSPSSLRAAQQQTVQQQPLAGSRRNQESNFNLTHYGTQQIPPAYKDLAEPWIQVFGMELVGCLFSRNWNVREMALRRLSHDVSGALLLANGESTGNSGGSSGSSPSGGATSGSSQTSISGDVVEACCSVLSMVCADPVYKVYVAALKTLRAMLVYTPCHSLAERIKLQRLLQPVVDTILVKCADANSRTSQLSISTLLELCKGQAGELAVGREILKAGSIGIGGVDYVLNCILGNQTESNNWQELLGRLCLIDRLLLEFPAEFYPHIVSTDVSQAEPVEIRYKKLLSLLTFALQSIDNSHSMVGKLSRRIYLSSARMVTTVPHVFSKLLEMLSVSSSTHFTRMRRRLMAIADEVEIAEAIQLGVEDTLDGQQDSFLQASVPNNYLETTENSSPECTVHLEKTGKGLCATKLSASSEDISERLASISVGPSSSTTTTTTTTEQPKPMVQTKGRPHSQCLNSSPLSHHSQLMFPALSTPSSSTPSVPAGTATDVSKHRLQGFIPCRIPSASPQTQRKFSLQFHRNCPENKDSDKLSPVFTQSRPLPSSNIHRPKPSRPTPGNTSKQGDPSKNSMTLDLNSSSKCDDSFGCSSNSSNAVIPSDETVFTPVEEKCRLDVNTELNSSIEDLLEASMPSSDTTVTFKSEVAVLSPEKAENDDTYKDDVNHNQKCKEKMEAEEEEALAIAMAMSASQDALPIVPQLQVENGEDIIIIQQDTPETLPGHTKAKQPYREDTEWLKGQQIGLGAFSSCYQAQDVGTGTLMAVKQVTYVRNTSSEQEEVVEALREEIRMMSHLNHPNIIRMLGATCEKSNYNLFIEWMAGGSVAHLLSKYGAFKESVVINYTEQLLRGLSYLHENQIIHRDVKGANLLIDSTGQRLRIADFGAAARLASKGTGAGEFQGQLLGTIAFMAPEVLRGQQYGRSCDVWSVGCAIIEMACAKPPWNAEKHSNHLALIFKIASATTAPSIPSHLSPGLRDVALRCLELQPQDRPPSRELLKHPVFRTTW

Row | Structure (SMILES) | Kd
16 | Cc1ccc(NC(=O)c2ccc(CN3CC[C@H](N(C)C)C3)c(C(F)(F)F)c2)cc1Nc1nccc(-c2cncnc2)n1 [BAFETINIB] | > 30 µM (inactive)
17 | CNC(=O)c1ccc(-c2cnc3ncc(Cc4ccc5ncccc5c4)n3n2)cc1F [CAPMATINIB] | > 30 µM (inactive)
18 | COCCNCc1ccc(-c2cc3nccc(Oc4ccc(NC(=S)NC(=O)Cc5ccc(F)cc5)cc4F)c3s2)nc1 [GLESATINIB] | > 30 µM (inactive)

target: STE20-like serine/threonine-protein kinase (Homo sapiens, UniProt Q9H2G2)
Sequence (Q9H2G2 whole entry): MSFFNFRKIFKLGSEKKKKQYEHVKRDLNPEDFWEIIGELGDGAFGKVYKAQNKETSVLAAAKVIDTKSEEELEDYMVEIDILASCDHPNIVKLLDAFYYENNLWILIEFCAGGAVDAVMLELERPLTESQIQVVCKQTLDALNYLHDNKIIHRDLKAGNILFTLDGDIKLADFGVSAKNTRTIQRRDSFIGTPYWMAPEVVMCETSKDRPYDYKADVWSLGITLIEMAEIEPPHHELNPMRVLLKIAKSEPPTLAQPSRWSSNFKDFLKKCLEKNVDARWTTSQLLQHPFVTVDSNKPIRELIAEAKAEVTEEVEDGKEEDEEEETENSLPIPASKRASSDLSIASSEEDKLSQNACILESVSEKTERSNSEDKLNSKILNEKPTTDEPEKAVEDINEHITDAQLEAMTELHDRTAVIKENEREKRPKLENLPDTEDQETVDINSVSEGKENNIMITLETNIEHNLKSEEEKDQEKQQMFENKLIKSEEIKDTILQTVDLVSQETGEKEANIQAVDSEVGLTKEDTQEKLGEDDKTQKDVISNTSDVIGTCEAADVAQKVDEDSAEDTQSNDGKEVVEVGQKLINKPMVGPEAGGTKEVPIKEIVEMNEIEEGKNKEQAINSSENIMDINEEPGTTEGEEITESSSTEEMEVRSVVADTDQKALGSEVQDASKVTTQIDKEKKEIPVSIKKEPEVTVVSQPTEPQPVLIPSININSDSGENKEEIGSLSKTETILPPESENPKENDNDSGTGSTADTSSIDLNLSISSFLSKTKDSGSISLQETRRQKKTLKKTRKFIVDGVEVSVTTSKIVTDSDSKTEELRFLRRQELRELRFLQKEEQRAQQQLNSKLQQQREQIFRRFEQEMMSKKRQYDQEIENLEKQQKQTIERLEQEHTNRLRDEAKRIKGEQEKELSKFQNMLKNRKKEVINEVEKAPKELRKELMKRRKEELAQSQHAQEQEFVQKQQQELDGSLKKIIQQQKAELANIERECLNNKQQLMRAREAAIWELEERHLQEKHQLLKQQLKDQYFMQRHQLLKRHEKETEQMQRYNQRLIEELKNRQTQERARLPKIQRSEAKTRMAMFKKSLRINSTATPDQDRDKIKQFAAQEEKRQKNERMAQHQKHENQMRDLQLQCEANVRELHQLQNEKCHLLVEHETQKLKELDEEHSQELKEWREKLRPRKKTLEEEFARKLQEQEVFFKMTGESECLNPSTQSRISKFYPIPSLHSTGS

Row | Structure (SMILES) | Kd
19 | Cc1ccc(NC(=O)c2ccc(CN3CC[C@H](N(C)C)C3)c(C(F)(F)F)c2)cc1Nc1nccc(-c2cncnc2)n1 [BAFETINIB] | > 30 µM (inactive)
20 | CNC(=O)c1ccc(-c2cnc3ncc(Cc4ccc5ncccc5c4)n3n2)cc1F [CAPMATINIB] | > 30 µM (inactive)
21 | COCCNCc1ccc(-c2cc3nccc(Oc4ccc(NC(=S)NC(=O)Cc5ccc(F)cc5)cc4F)c3s2)nc1 [GLESATINIB] | > 30 µM (inactive)

target: T2, Mitogen-activated protein kinase kinase kinase 2 (Homo sapiens, UniProt Q9Y2U5)
T2 sequence (Q9Y2U5 whole entry): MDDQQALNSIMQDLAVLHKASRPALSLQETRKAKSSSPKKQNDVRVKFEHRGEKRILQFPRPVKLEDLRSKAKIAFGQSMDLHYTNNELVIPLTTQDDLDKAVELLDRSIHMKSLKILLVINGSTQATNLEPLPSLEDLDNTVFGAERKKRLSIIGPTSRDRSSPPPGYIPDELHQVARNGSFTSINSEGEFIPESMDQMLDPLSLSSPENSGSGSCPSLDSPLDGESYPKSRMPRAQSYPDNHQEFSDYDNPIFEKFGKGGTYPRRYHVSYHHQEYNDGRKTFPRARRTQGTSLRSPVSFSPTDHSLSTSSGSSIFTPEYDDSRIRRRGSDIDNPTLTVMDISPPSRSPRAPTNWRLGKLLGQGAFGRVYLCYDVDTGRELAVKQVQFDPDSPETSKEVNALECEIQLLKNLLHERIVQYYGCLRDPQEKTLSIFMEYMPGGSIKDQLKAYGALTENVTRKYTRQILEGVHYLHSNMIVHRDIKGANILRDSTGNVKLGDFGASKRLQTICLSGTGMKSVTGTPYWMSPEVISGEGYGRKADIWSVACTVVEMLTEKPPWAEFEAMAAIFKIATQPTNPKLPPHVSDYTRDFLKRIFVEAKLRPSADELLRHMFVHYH

Row | Structure (SMILES) | Kd
22 | Cc1ccc(NC(=O)c2ccc(CN3CC[C@H](N(C)C)C3)c(C(F)(F)F)c2)cc1Nc1nccc(-c2cncnc2)n1 [BAFETINIB] | > 30 µM (inactive)
23 | CNC(=O)c1ccc(-c2cnc3ncc(Cc4ccc5ncccc5c4)n3n2)cc1F [CAPMATINIB] | > 30 µM (inactive)
24 | COCCNCc1ccc(-c2cc3nccc(Oc4ccc(NC(=S)NC(=O)Cc5ccc(F)cc5)cc4F)c3s2)nc1 [GLESATINIB] | > 30 µM (inactive)

target: Atypical kinase COQ8A, mitochondrial (Homo sapiens, UniProt Q8NI60)

Row | Structure (SMILES) | Kd
25 | Cc1ccc(NC(=O)c2ccc(CN3CC[C@H](N(C)C)C3)c(C(F)(F)F)c2)cc1Nc1nccc(-c2cncnc2)n1 [BAFETINIB] | > 30 µM (inactive)
26 | CNC(=O)c1ccc(-c2cnc3ncc(Cc4ccc5ncccc5c4)n3n2)cc1F [CAPMATINIB] | > 30 µM (inactive)
27 | COCCNCc1ccc(-c2cc3nccc(Oc4ccc(NC(=S)NC(=O)Cc5ccc(F)cc5)cc4F)c3s2)nc1 [GLESATINIB] | > 30 µM (inactive)

target: Tyrosine-protein kinase Fer (Homo sapiens, UniProt P16591)
Sequence (P16591 whole entry): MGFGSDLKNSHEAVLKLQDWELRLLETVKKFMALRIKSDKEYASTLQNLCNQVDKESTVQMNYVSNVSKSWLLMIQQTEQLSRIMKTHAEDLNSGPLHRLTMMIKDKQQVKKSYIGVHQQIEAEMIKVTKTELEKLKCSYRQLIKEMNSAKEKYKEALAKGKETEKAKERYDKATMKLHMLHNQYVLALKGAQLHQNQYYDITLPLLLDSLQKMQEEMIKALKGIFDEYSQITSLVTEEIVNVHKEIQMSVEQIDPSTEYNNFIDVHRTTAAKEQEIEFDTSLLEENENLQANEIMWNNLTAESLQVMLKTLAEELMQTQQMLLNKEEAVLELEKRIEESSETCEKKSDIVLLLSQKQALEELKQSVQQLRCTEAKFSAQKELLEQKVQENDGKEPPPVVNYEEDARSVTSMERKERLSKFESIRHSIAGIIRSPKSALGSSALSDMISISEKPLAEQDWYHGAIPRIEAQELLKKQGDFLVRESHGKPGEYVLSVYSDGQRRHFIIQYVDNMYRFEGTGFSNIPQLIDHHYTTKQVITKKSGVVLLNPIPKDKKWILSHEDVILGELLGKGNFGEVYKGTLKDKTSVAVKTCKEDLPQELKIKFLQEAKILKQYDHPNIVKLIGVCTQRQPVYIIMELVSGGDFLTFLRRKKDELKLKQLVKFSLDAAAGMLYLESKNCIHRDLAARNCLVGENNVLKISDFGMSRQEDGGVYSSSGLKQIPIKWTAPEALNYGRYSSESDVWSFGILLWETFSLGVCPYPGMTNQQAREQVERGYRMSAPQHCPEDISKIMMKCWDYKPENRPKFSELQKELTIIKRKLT

Row | Structure (SMILES) | Kd
28 | Cc1ccc(NC(=O)c2ccc(CN3CC[C@H](N(C)C)C3)c(C(F)(F)F)c2)cc1Nc1nccc(-c2cncnc2)n1 [BAFETINIB] | > 30 µM (inactive)
29 | CNC(=O)c1ccc(-c2cnc3ncc(Cc4ccc5ncccc5c4)n3n2)cc1F [CAPMATINIB] | > 30 µM (inactive)
30 | COCCNCc1ccc(-c2cc3nccc(Oc4ccc(NC(=S)NC(=O)Cc5ccc(F)cc5)cc4F)c3s2)nc1 [GLESATINIB] | > 30 µM (inactive)

target: Deoxycytidine kinase (Homo sapiens, UniProt P27707)
Sequence (P27707 whole entry): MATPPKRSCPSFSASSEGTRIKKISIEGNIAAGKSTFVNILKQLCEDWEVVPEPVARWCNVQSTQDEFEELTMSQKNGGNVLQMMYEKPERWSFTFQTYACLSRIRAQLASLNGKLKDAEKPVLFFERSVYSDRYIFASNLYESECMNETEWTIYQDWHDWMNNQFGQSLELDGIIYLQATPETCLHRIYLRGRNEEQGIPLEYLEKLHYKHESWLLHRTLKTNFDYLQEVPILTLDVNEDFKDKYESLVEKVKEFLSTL

Row | Structure (SMILES) | Kd
31 | Cc1ccc(NC(=O)c2ccc(CN3CC[C@H](N(C)C)C3)c(C(F)(F)F)c2)cc1Nc1nccc(-c2cncnc2)n1 [BAFETINIB] | > 30 µM (inactive)
32 | CNC(=O)c1ccc(-c2cnc3ncc(Cc4ccc5ncccc5c4)n3n2)cc1F [CAPMATINIB] | > 30 µM (inactive)
33 | COCCNCc1ccc(-c2cc3nccc(Oc4ccc(NC(=S)NC(=O)Cc5ccc(F)cc5)cc4F)c3s2)nc1 [GLESATINIB] | > 30 µM (inactive)

target: Tyrosine-protein kinase Lyn (Homo sapiens, UniProt P07948)

Row | Structure (SMILES) | Kd
34 | Cc1ccc(NC(=O)c2ccc(CN3CC[C@H](N(C)C)C3)c(C(F)(F)F)c2)cc1Nc1nccc(-c2cncnc2)n1 [BAFETINIB] | 0.239 µM (active)
35 | CNC(=O)c1ccc(-c2cnc3ncc(Cc4ccc5ncccc5c4)n3n2)cc1F [CAPMATINIB] | > 30 µM (inactive)

target: T3, ATP-dependent 6-phosphofructokinase, platelet type (Homo sapiens, UniProt Q01813)
T3 sequence (Q01813 whole entry): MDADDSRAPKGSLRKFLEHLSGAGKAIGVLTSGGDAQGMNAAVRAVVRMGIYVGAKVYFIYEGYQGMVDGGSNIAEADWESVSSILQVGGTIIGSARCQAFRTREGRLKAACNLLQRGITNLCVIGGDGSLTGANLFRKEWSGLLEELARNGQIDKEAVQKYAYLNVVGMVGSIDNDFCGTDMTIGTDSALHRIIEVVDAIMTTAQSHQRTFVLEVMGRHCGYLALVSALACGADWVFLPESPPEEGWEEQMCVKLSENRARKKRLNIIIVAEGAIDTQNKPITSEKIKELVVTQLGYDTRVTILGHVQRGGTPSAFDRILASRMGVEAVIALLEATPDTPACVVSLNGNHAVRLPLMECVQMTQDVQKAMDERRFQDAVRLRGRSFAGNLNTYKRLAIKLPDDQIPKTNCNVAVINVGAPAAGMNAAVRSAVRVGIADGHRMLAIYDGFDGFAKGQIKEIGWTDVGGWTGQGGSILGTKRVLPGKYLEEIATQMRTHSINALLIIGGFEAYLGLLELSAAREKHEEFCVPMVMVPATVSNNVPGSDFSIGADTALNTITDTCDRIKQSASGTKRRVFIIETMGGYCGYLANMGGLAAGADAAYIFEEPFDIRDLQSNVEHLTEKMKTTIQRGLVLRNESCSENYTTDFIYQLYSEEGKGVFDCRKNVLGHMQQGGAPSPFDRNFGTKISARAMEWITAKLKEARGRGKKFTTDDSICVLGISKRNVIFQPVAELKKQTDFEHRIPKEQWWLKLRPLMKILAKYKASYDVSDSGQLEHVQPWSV

Row | Structure (SMILES) | Kd
36 | COCCNCc1ccc(-c2cc3nccc(Oc4ccc(NC(=S)NC(=O)Cc5ccc(F)cc5)cc4F)c3s2)nc1 [GLESATINIB] | > 30 µM (inactive)
